The experiment addresses human TLR7 (Homo sapiens (Human), UniProt Q9NYK1). Briefly: Test for evaluating the inhibition of the activation of human TLR7 (SEAP reporter, TLR7/NF-κB/SEAPorter HEK293 cell). In kind it is cell-based. The note with it: R-848 200 nmol/L; for IC50: SEAP reporter; for inhibitory effect against TLR7 in the test for evaluating inhibition of the activation of TLR7: SEAP activity, result in words. An outline of the steps:
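HEK293 cells stably expressing full-length human TLR7 and an NF-κB-driven SEAP reporter. They were grown in DMEM with 10% FBS and blasticidin, and seeded at 5×10^4 cells/well overnight at 37° C, 5% CO2. Inhibition of TLR7 activation was read as SEAP output.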

Results on 50 compounds are retold here after US10703755B2, “Substituted purine derivative” (SUMITOMO DAINIPPON PHARMA CO., LTD., priority 2016, dated 2020).

Molecules are shown by their SMILES.

Chain of human TLR7 (Q9NYK1 27-1049): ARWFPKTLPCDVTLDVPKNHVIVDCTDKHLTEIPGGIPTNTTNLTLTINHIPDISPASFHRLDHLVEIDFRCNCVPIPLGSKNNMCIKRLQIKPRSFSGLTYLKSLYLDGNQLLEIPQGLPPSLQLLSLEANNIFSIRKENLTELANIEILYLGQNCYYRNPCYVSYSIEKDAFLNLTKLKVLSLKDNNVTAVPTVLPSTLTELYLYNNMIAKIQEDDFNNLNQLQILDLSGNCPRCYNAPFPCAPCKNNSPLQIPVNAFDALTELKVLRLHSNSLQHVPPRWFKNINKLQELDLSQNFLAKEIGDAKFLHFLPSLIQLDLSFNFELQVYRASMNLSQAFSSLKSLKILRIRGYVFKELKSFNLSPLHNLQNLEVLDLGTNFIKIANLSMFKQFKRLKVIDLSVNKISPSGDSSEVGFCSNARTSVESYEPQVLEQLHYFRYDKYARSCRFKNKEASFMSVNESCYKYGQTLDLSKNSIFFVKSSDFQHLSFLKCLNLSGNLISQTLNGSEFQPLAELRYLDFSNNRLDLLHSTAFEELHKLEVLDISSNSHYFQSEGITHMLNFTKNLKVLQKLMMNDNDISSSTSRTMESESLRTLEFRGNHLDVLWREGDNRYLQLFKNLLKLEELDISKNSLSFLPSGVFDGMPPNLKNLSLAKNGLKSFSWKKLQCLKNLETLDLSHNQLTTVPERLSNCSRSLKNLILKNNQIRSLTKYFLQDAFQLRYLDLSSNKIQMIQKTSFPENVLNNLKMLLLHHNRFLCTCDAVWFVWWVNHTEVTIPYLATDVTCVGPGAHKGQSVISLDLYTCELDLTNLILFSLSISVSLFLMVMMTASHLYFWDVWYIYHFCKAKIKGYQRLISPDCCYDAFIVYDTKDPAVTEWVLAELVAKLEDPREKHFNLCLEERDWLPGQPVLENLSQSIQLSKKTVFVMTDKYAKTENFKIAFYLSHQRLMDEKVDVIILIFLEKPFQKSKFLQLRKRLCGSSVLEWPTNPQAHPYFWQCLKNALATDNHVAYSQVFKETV

For the compound `CCCCN(C)c1nc(N)c2nc(-c3cncc(F)c3)n(Cc3ccc(CN(C)C)cc3)c2n1` [Example 155], the IC50 turned out to be 8100 nM. The same measure, in the same setting: as for `Cc1nc(N)c2nc(-c3cncc(F)c3)n(Cc3ccc(CN(C)C)cc3)c2n1` [Example 156, 9-{4-[(Dimethylamino)methyl]benzyl}-8-(5-fluoropyridin-3-yl)-2-methyl-9H-purine-6-amine], the figure is 5000 nM.

`CCc1nc(N)c2nc(-c3cncc(F)c3)n(Cc3ccc(CN(C)C)cc3)c2n1` [Example 157]: the half-maximal inhibitory concentration (IC50) amounted to 8900 nM. In turn, `COCC(C)Oc1nc(N)c2nc(-c3cncc(F)c3)n(Cc3ccc(CN(C)C)cc3)c2n1` (stereo not shown) [Example 158, 9-{4-[(Dimethylamino)methyl]benzyl}-8-(5-fluoropyridin-3-yl)-2-[(1-methoxypropan-2-yl)oxy]-9H-purine-6-amine] came in with an IC50 of 13700 nM. Same read-out and setting: under `CN(C)Cc1ccc(Cn2c(-c3cncc(F)c3)nc3c(N)nc(OCC(F)F)nc32)cc1` [Example 159] stands 930 nM. For `CN(C)Cc1ccc(Cn2c(-c3cncc(F)c3)nc3c(N)nc(OCC4CC4)nc32)cc1` [Example 160], half-maximal inhibition (IC50) was put at 1300 nM. This IC50 and that of the compound before are within 1.5-fold of each other. Take `COc1nc(N)c2nc(-c3cncc(F)c3)n(Cc3ccc(CN4C[C@@H]5C[C@H]4CN5C)cc3)c2n1` [Example 161]: the “inhibitory effect against TLR7 in the test for evaluating inhibition of the activation of TLR7” value (“inhibitory effect against TLR7” for short) is on record as “potent inhibitory effect against TLR7” and 28 nM corresponded to half-maximal inhibition (IC50).

In turn, `CCCOc1nc(N)c2nc(-c3cncc(F)c3)n(Cc3ccc(CN(C)C)cc3)c2n1` [Example 162] came in with a 50% inhibitory concentration (IC50) of 210 nM. `CCOc1nc(C)c2nc(-c3cncc(F)c3)n(Cc3cnn(C4CCN(C)C4)c3)c2n1` (stereo not shown) [Example 164]: half-maximal inhibition (IC50) required 170 nM. Take `COc1nc(C)c2nc(-c3cncc(F)c3)n(Cc3ccc(C4CN5CCC4CC5)cc3)c2n1` (stereo not shown) [Example 165, 9-[4-(1-Azabicyclo[2.2.2]oct-3-yl)benzyl]-8-(5-fluoropyridin-3-yl)-2-methoxy-6-methyl-9H-purine]: the “inhibitory effect against TLR7” value is “potent inhibitory effect against TLR7” and half-maximal inhibition (IC50) required 16 nM.

For `CCOc1nc(C)c2nc(-c3cncc(F)c3)n(Cc3cnn(C4CCN(C)CC4)c3)c2n1` [Example 166], the “inhibitory effect against TLR7” value is “potent inhibitory effect against TLR7” and the half-maximal inhibitory concentration (IC50) is 50 nM. For `CCOc1nc(C)c2nc(-c3cncc(F)c3)n(Cc3cnn(C4CN5CCC4CC5)c3)c2n1` (stereo not shown) [Example 167], it took 110 nM to reach half-maximal inhibition (IC50). Compound `CCOc1nc(C)c2nc(-c3cncc(F)c3)n(Cc3cccnc3)c2n1` [Example 168] gave an IC50 of 1400 nM. For `CCOc1nc(C)c2nc(-c3cncc(F)c3)n(Cc3ccc(C4CCCN4C)cc3)c2n1` (stereo not shown) [Example 170], the midpoint of inhibition, the IC50, lay at 82 nM. As to `CCOc1nc(C)c2nc(-c3cncc(F)c3)n(Cc3ccc(C4CN5CCC4CC5)cc3F)c2n1` (stereo not shown) [Example 172], the “inhibitory effect against TLR7” value is recorded as “potent inhibitory effect against TLR7” and the midpoint of inhibition, the IC50, lay at 3 nM.

On to `CCOc1nc(C)c2nc(-c3cncc(F)c3)n(Cc3ccc(CN4CCN5CC[C@@H]4C5)cc3)c2n1` [Example 174, 9-{4-[(5R)-1,4-diazabicyclo[3.2.1]oct-4-ylmethyl]benzyl}-2-ethoxy-8-(5-fluoropyridin-3-yl)-6-methyl-9H-purine], for which the “inhibitory effect against TLR7” value was “potent inhibitory effect against TLR7” and the IC50 came out at 26 nM. For the compound `CCOc1nc(N)c2nc(-c3cncc(F)c3)n(Cc3ccc([C@@H]4CN5CCC4CC5)cc3)c2n1` [Example 175, 9-{4-[(3R)-1-Azabicyclo[2.2.2]oct-3-yl]benzyl}-2-ethoxy-8-(5-fluoropyridin-3-yl)-9H-purine-6-amine], the IC50 turned out to be 94 nM. For the compound `CCOc1nc(N)c2nc(-c3cncc(F)c3)n(Cc3ccc([C@H]4CN5CCC4CC5)cc3)c2n1` [Example 176, 9-{4-[(3S)-1-azabicyclo[2.2.2]oct-3-yl]benzyl}-2-ethoxy-8-(5-fluoropyridin-3-yl)-9H-purine-6-amine], the “inhibitory effect against TLR7” value is “potent inhibitory effect against TLR7” and the midpoint of inhibition, the IC50, lay at 11 nM.

Regarding `COc1nc(C)c2nc(-c3cncc(F)c3)n(Cc3ccc([C@@H]4CN5CCC4CC5)cc3)c2n1` [Example 177, 9-{4-[(3R)-1-Azabicyclo[2.2.2]oct-3-yl]benzyl}-8-(5-fluoropyridin-3-yl)-2-methoxy-6-methyl-9H-purine], half-maximal inhibition (IC50) was put at 10 nM. This lies in the double-digit nanomolar range. As to `CCCCOc1nc(N)c2nc(-c3ccc(N(C)C)cc3)n(Cc3ccccc3)c2n1` [Example 179], the IC50 was 16200 nM. On to `COCCOc1nc(N)c2nc(-c3cncc(S(C)(=O)=O)c3)n(Cc3ccc(CN(C)C)cc3)c2n1` [Example 181], for which the IC50 was determined as 19700 nM. `CCOc1nc(N)c2nc(-c3cncc(F)c3)n(Cc3cccc(C#N)c3)c2n1` [Example 237] registered a 50% inhibitory concentration (IC50) of 2020 nM. `CCOc1nc(N)c2nc(-c3cncc(F)c3)n(Cc3cc(F)ccc3F)c2n1` [Example 240] displayed a half-maximal inhibitory concentration (IC50) of 357 nM. Compound `COc1nc(C)c2nc(-c3cncc(F)c3)n(Cc3cnn(C)c3)c2n1` [Example 243] gave a 50% inhibitory concentration (IC50) of 2660 nM.

Consider `CCOc1nc(C)c2nc(-c3cncc(F)c3)n(Cc3cnn(CCN(C)C)c3)c2n1` [Example 244], for which inhibition was half-maximal at 445 nM (IC50). In turn, `CCOc1nc(C)c2nc(-c3cncc(F)c3)n(Cc3cnn(CCCN(C)C)c3)c2n1` [Example 245] returned an IC50 of 198 nM. This IC50 is about 2.2-fold lower than that of the compound before.

`CCOc1nc(C)c2nc(-c3cncc(F)c3)n(Cc3cnn(CCN4CCCC4)c3)c2n1` [Example 246] displayed an IC50 of 300 nM. For the compound `CCOc1nc(C)c2nc(-c3cncc(F)c3)n(Cc3cnn(CCCN4CCCC4)c3)c2n1` [Example 247], the IC50 worked out at 85 nM. As to `CCOc1nc(C)c2nc(-c3cncc(F)c3)n(Cc3cnn(CCN4CCOCC4)c3)c2n1` [Example 248], it took 248 nM to reach half-maximal inhibition (IC50).

In turn, `CCOc1nc(C)c2nc(-c3cncc(F)c3)n(Cc3cnn(CCCN4CCOCC4)c3)c2n1` [Example 249] had an IC50 of 100 nM. Compound `COc1nc(C)c2nc(-c3cncc(F)c3)n(Cc3cnn(CCN(C)C)c3)c2n1` [Example 250] displayed an IC50 of 200 nM.

Turning to `COc1nc(C)c2nc(-c3cncc(F)c3)n(Cc3cnn(CCCN(C)C)c3)c2n1` [Example 251], the IC50 was 180 nM. The IC50 values of the last two compounds are within 1.5-fold of each other. Compound `COc1nc(C)c2nc(-c3cncc(F)c3)n(Cc3ccc(CO)cc3F)c2n1` [Example 258] came in with an IC50 of 169 nM.

As to `COc1nc(C)c2nc(-c3cncc(F)c3)n(Cc3ccc(CN(C)C)cc3F)c2n1` [Example 259, 1-(3-fluoro-4-{[8-(5-fluoropyridin-3-yl)-2-methoxy-6-methyl-9H-purin-9-yl]methyl}phenyl)-N,N-dimethylmethanamine], the “inhibitory effect against TLR7” value was “potent inhibitory effect against TLR7” and the half-inhibitory concentration (IC50) worked out at 28 nM.

Regarding `COc1nc(C)c2nc(-c3cncc(F)c3)n(Cc3ccc(CN4CCC4)cc3F)c2n1` [Example 260, 9-[4-(azetidin-1-ylmethyl)-2-fluorobenzyl]-8-(5-fluoropyridin-3-yl)-2-methoxy-6-methyl-9H-purine], the “inhibitory effect against TLR7” value is listed as “potent inhibitory effect against TLR7” and the 50% inhibitory concentration (IC50) stood at 18 nM. On to `CCOC1CN(Cc2ccc(Cn3c(-c4cncc(F)c4)nc4c(C)nc(OC)nc43)c(F)c2)C1` [Example 261], for which the IC50 turned out to be 1160 nM. Regarding `CCOc1nc(C)c2nc(-c3cncc(F)c3)n(Cc3ccc(CN4CCN(C)CC4)cc3)c2n1` [Example 262], the “inhibitory effect against TLR7” value was “potent inhibitory effect against TLR7” and the IC50 is 27 nM. Compound `CCOc1nc(C)c2nc(-c3cncc(F)c3)n(Cc3ccc(CN4CCCC4)cc3)c2n1` [Example 263] gave a half-inhibitory concentration (IC50) of 102 nM. In the case of `CCOc1nc(C)c2nc(-c3cncc(F)c3)n(Cc3ccc(CN4CCCCC4)cc3)c2n1` [Example 264], the “inhibitory effect against TLR7” value is “potent inhibitory effect against TLR7” and the IC50 was found to be 63 nM. `CCOc1nc(C)c2nc(-c3cncc(F)c3)n(Cc3ccc(CN4[C@@H]5CC[C@H]4CN(C)C5)cc3)c2n1` [Example 265]: the “inhibitory effect against TLR7” value is recorded as “potent inhibitory effect against TLR7” and the IC50 was 57 nM. Consider `CCOc1nc(C)c2nc(-c3cncc(F)c3)n(Cc3ccc(CN(CC)CC)cc3)c2n1` [Example 266], for which the “inhibitory effect against TLR7” value is “potent inhibitory effect against TLR7” and the IC50 stood at 29 nM. Turning to `CCOc1nc(C)c2nc(-c3cncc(F)c3)n(Cc3cnn(CC4CCCNC4)c3)c2n1` (stereo not shown) [Example 268], the IC50 is 27 nM. `CCOc1nc(C)c2nc(-c3cncc(F)c3)n(Cc3cnn(CC4CCCNC4)c3)c2n1` (stereo not shown) [Example 269] showed an IC50 of 19 nM. As to `CCOc1nc(C)c2nc(-c3cncc(F)c3)n(Cc3cnn(CC4CCNC4)c3)c2n1` (stereo not shown) [Example 270], the 50% inhibitory concentration (IC50) worked out at 272 nM. `CCOc1nc(C)c2nc(-c3cncc(F)c3)n(Cc3cnn(CC4CCNC4)c3)c2n1` (stereo not shown) [Example 271] came in with an IC50 of 99 nM.

For the compound `CCOc1nc(C)c2nc(-c3cncc(F)c3)n(Cc3cnn(CC4CN(C)CCO4)c3)c2n1` (stereo not shown) [Example 272], the IC50 turned out to be 261 nM. This IC50 is about 2.6-fold higher than that of the compound before. For `CCOc1nc(C)c2nc(-c3cncc(F)c3)n(Cc3cnn(CC4CN(C)CCO4)c3)c2n1` (stereo not shown) [Example 273], the IC50 was 200 nM. As for `CCOc1nc(C)c2nc(-c3cncc(F)c3)n(Cc3cnn(CC4COCCN4C)c3)c2n1` (stereo not shown) [Example 274], the IC50 was determined as 100 nM. Turning to `CCOc1nc(C)c2nc(-c3cncc(F)c3)n(Cc3cnn(CC4CCCN(C)C4)c3)c2n1` (stereo not shown) [Example 276], the “inhibitory effect against TLR7” value is given as “potent inhibitory effect against TLR7” and the IC50 amounted to 24 nM. Turning to `CCOc1nc(C)c2nc(-c3cncc(F)c3)n(Cc3cnn(CC4CCCN(C)C4)c3)c2n1` (stereo not shown) [Example 277], the “inhibitory effect against TLR7” value is “potent inhibitory effect against TLR7” and the IC50 came to 23 nM.
